Measurements from patent US11732143B2, “Identification and characterization of novel corrosion inhibitor molecules” (ECOLAB USA INC., priority 2015, dated 2023).

Tested on: live bacteria
Assay: Biocide efficiency, fluorescence detection of ATP, percentage kill / viable bacteria
Type: cell-based
Conditions: for biocidal efficiency in conjunction with biocide 4: 120 ppm corrosion inhibitor + 100 ppm biocide 4 (glutaraldehyde); for biocidal efficiency of the corrosion inhibitor by itself (viable microorganisms): 120 ppm corrosion inhibitor alone
Method: Biocidal efficiency of the biocide and biocide in conjunction with corrosion inhibitors were analyzed using fluorescence to indirectly detect the amount of ATP in a given sample. ATP provides a direct correlation to live bacteria (1fg of ATP=1 cell). Through a standard curve, it is the possible to translate the amount of ATP in a given sample to the number of cells/mL in a given sample. Percentage kill was calculated by normalizing the detected bacterial numbers in a biocide or a biocide and corrosion inhibitor treated sample to untreated sample.

| Substance | biocidal efficiency in conjunction with biocide 4 | biocidal efficiency of the corrosion inhibitor by itself (viable microorganisms) |
| --- | --- | --- |
| 2-hydroxylethyl-N-methylbutane-1-sulphonamide | does not have any biocidal properties | does not have any biocidal properties |
| Cocoamphodiproprionate sodium salt | modest increase in the biocidal properties of biocide 4 | not efficient in reducing the number of viable microorganisms by itself |
